# Patent US11214803B2, “Modulators of YAP1 expression” (Ionis Pharmaceuticals, Inc., priority 2019, dated 2022)
# Strand notation (5' to 3'): a small letter for the sugar, then the base; units joined by * are phosphorothioate-linked, units joined directly phosphodiester-linked; [ ] holds rarer units or linkages, { } end groups; capitals alone tell only the bases. k = constrained ethyl (cEt); [5mC] = 5-methylcytosine; d = 2'-deoxy (DNA)
# Tested on: Yap1 mRNA
# Assay: Antisense inhibition of human Yap1 in A-431 cells by cEt gapmers, single dose (Example 3, RTS36584)
# Type: cell-based
# Outline: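 Free uptake, 2,000 nM, ~48 h, A-431 cells. Gapmers: 16-mer 3-10-3 cEt wings, PS backbone, 5-MeC. Readout qRT-PCR, RiboGreen-normalized, % UTC.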
# [1] = Table 29, Yap1 mRNA as percent of untreated control, 3-10-3 cEt gapmers targeting SEQ ID NO.: 1, and 2
# [2] = Table 12, A-431 cells, 5,000 cells per well, free uptake, 2,000 nM modified oligonucleotide, approx. 48 hours, RTS36584, normalized to RIBOGREEN, Yap1 mRNA relative to untreated control cells
# [3] = Table 11, A-431 cells, 5,000 cells per well, free uptake, 2,000 nM oligonucleotide, approx. 48 hours, primer probe set RTS36584, Yap1 mRNA normalized to RIBOGREEN, percent of untreated control
# [4] = Table 27, Yap1 mRNA by 3-10-3 cEt gapmers targeting SEQ ID NO.: 1, and 2, percent of untreated control
# [5] = Table 28, Yap1 mRNA as percent of untreated control, 3-10-3 cEt gapmers targeting SEQ ID NO.: 1, and 2
# [6] = Table 13, A-431 cells, 5,000 cells per well, free uptake, 2,000 nM modified oligonucleotide, approx. 48 hours, RTS36584, normalized to RIBOGREEN, Yap1 mRNA relative to untreated control cells
# [7] = Table 35, Yap1 mRNA as percent of untreated control, 3-10-3 cEt gapmers targeting SEQ ID NO: 1 and 2, single dose
# [8] = Table 26, Yap1 mRNA by 3-10-3 cEt gapmers targeting SEQ ID NO.: 1, and 2, percent of untreated control
substance,measurement,setting,value
1075151 (kT*kT*kT*dA*dA*dA*dA*dG*dT*dA*d[5mC]*d[5mC]*dA*kG*k[5mC]*kG; antisense) [compound 1075151],YAP1 (% UTC),[1],60 % UTC
958542 (kT*kA*kT*dA*dG*dT*dA*dT*dT*d[5mC]*dT*dA*dT*k[5mC]*k[5mC]*kA; antisense) [Compound 958542],YAP1 (% UTC),"Table 10, A-431 cells, 5,000 cells per well, free uptake, 2,000 nM oligonucleotide, approx. 48 hours, primer probe set RTS36584, Yap1 mRNA normalized to RIBOGREEN, percent of untreated control",4 % UTC
958639 (antisense kG*kT*kT*dA*dT*dG*dG*dG*dT*dG*d[5mC]*dT*dT*kT*kT*k[5mC]) [Compound 958639],YAP1 (% UTC),[2],18 % UTC
958443 (antisense k[5mC]*kT*k[5mC]*d[5mC]*dA*d[5mC]*dG*dG*dG*d[5mC]*d[5mC]*dG*dA*kG*kG*kT) [Compound 958443],YAP1 (% UTC),[3],90 % UTC
958386 (antisense kG*kG*k[5mC]*dG*d[5mC]*dG*d[5mC]*dG*d[5mC]*dA*dT*dT*dG*kT*kG*k[5mC]) [Compound 958386],YAP1 (% UTC),"Table 8, A-431 cells, 5,000 cells per well, free uptake, 2,000 nM, approximately 48 hours, RTS36584, normalized to RIBOGREEN, Yap1 mRNA relative to untreated control cells",111 % UTC
1076333 (antisense k[5mC]*kT*kA*dT*dA*dA*dG*dG*dA*dA*dT*dG*dG*k[5mC]*kA*kA) [compound 1076333],YAP1 (% UTC),[4],97 % UTC
1074381 (kA*kG*kT*d[5mC]*dT*dG*dG*dG*dA*dA*dA*d[5mC]*dG*kG*kT*kT; antisense) [compound 1074381],YAP1 (% UTC),[4],16 % UTC
1075631 (antisense k[5mC]*k[5mC]*k[5mC]*dT*dA*dT*dA*dA*d[5mC]*d[5mC]*dA*dA*dA*kT*kG*k[5mC]) [compound 1075631],YAP1 (% UTC),[1],104 % UTC
1076207 (kA*kG*kT*d[5mC]*dA*dA*dT*dA*dA*dA*d[5mC]*dT*dT*kA*k[5mC]*k[5mC]; antisense) [compound 1076207],YAP1 (% UTC),[1],58 % UTC
1075150 (kA*kG*k[5mC]*dG*dG*dA*dA*dA*dA*dA*dA*d[5mC]*dA*k[5mC]*k[5mC]*kT; antisense) [compound 1075150],YAP1 (% UTC),[5],35 % UTC
1074799 (kT*kG*k[5mC]*dT*dT*dT*dG*dG*dA*dA*dG*dA*dT*k[5mC]*kT*kG) [compound 1074799],YAP1 (% UTC),[1],8 % UTC
958780 (antisense kT*k[5mC]*kA*dA*d[5mC]*dT*dA*d[5mC]*dT*dT*dT*dT*d[5mC]*kA*kG*k[5mC]) [Compound 958780],YAP1 (% UTC),[6],24 % UTC
1074542 (kA*kG*kG*d[5mC]*dA*d[5mC]*dT*dA*dT*d[5mC]*d[5mC]*dA*d[5mC]*kA*kG*kT; antisense) [compound 1074542],YAP1 (% UTC),[5],21 % UTC
1075725 (kA*kT*k[5mC]*d[5mC]*dT*dA*dT*d[5mC]*dT*dG*dT*d[5mC]*dA*kG*kT*kT; antisense) [compound 1075725],YAP1 (% UTC),[4],18 % UTC
958644 (antisense kA*kT*kG*dA*dT*d[5mC]*dA*dA*dA*d[5mC]*d[5mC]*dT*dT*kT*kT*k[5mC]) [Compound 958644],YAP1 (% UTC),[2],5 % UTC
1075829 (kA*k[5mC]*kT*d[5mC]*dA*dA*dT*dA*dG*dA*dT*d[5mC]*dA*kT*kT*kG; antisense) [compound 1075829],YAP1 (% UTC),[7],41 % UTC
958715 (antisense kG*kT*kA*dA*dT*dA*dG*dG*dA*dG*dG*dT*dA*kA*kG*kA) [Compound 958715],YAP1 (% UTC),[6],48 % UTC
1075532 (kA*k[5mC]*kT*dT*dA*dA*dT*dA*dG*dT*dT*dT*dA*kA*k[5mC]*k[5mC]; antisense) [compound 1075532],YAP1 (% UTC),[8],121 % UTC
958681 (kA*kA*kT*dT*dA*dA*d[5mC]*dA*d[5mC]*d[5mC]*dT*dG*dA*kG*k[5mC]*kT; antisense) [Compound 958681],YAP1 (% UTC),"Table 9, A-431 cells, 5,000 cells per well, free uptake, 2,000 nM, approximately 48 hours, RTS36584, normalized to RIBOGREEN, Yap1 mRNA relative to untreated control cells",84 % UTC
958793 (antisense k[5mC]*k[5mC]*kG*d[5mC]*dA*dT*dT*dG*d[5mC]*d[5mC]*dT*dA*dA*kG*kA*kG) [Compound 958793],YAP1 (% UTC),[3],9 % UTC
1074860 (kA*kA*kA*dG*dG*dT*dA*dA*d[5mC]*dA*dT*dT*dG*kG*kT*kA; antisense) [compound 1074860],YAP1 (% UTC),[8],9 % UTC
1074901 (antisense kT*kA*kT*dT*dA*dA*d[5mC]*dT*dT*dT*dT*dG*dG*kG*k[5mC]*kA) [compound 1074901],YAP1 (% UTC),[7],61 % UTC
1075188 (kA*kG*kT*d[5mC]*dA*dA*d[5mC]*d[5mC]*dT*dG*dT*dA*dA*kT*kT*kA; antisense) [compound 1075188],YAP1 (% UTC),"Table 34, Yap1 mRNA as percent of untreated control, 3-10-3 cEt gapmers targeting SEQ ID NO: 1 and 2, single dose",14 % UTC
